Reference: ChEMBL document CHEMBL3875218, “Bifunctional conjugates with potent inhibitory activity towards cyclooxygenase and histone deacetylase” (Bioorg Med Chem, 2017)
Calls of active or inactive are those of the source. The calls are words filed in the database; no cut-off is given here.

Tests used:
LNCaP [1] = assay: Induction of cell cycle arrest in human LNCAP cells assessed as accumulation at S phase at 2.5 uM after 24 hrs by propidium iodide staining based FACS analysis (reference value: […]); format: functional
Histone deacetylase 1 = Histone deacetylase 1 (Homo sapiens, UniProt Q13547); assay: Inhibition of HDAC1 (unknown origin) after 24 hrs by SAMDI mass spectroscopic analysis
[2] = Cytotoxicity against human HCT116 cells assessed as cell growth inhibition after 72 hrs by MTT assay; format: functional, cell-based; settings: HCT-116, 72 h
[3] = Cytotoxicity against human LNCAP cells assessed as cell growth inhibition after 72 hrs by MTT assay; format: functional, cell-based
[4] = Cytotoxicity against human A549 cells assessed as cell growth inhibition after 72 hrs by MTT assay; format: functional, cell-based; settings: A549, 72 h
[5] = target: T1, Prostaglandin G/H synthase 1 (Ovis aries, UniProt P05979); assay: Inhibition of sheep COX1 using arachidonic acid as substrate preincubated for 15 mins followed by substrate addition for 2 mins by Cayman based fluorescence assay
T1 sequence (P05979 whole entry): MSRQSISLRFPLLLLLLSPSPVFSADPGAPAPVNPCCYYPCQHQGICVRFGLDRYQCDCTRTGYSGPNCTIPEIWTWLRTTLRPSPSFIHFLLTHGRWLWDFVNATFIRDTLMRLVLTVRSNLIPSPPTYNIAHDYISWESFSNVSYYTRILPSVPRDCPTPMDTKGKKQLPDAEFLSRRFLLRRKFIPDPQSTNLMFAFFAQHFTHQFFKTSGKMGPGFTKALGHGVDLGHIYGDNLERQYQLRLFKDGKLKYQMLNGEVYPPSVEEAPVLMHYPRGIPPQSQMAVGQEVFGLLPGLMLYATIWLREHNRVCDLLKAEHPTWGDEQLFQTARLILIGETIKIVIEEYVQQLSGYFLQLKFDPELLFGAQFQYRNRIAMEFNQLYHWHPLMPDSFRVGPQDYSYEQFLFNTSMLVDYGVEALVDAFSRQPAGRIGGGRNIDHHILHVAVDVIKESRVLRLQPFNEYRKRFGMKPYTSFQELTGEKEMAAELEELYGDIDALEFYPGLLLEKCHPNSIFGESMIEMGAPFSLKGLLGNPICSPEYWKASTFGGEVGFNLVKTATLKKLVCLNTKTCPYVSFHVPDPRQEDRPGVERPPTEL

[6] = target: T2, Prostaglandin G/H synthase 2 (Homo sapiens, UniProt P35354); assay: Inhibition of recombinant human COX2 using arachidonic acid as substrate preincubated for 15 mins followed by substrate addition for 2 mins by Cayman based fluorescence assay
T2 sequence (P35354 whole entry): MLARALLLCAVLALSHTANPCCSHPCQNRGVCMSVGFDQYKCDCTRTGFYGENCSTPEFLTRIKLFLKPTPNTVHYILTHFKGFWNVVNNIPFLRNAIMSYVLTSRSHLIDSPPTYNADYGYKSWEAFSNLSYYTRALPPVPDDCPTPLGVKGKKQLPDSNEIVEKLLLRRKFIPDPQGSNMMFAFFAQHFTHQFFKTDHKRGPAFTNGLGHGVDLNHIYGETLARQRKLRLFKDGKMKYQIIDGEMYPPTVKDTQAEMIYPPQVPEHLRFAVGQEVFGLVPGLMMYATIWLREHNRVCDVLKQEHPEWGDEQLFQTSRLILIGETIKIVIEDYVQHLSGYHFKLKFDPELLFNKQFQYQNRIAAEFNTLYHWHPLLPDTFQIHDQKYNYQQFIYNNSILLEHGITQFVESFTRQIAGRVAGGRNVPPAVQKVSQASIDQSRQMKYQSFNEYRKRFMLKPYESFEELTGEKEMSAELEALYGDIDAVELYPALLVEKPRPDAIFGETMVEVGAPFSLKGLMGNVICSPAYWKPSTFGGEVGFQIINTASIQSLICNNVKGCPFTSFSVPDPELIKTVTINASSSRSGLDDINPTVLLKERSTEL

Histone deacetylase 8 = target: T3, Histone deacetylase 8 (Homo sapiens, UniProt Q9BY41); assay: Inhibition of HDAC8 (unknown origin) after 2.5 hrs by SAMDI mass spectroscopic analysis
T3 sequence (Q9BY41 whole entry): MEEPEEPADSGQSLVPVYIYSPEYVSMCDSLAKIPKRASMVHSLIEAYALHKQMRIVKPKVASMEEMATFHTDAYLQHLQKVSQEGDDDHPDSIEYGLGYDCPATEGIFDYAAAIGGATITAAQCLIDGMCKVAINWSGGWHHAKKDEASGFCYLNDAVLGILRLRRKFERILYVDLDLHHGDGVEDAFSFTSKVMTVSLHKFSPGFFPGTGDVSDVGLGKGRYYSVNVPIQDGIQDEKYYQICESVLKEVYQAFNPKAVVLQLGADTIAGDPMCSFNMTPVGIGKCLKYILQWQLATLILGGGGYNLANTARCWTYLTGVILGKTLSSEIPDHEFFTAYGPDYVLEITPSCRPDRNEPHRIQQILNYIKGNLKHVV

[7] = Cytotoxicity against African green monkey Vero cells assessed as cell growth inhibition after 72 hrs by MTT assay; format: toxicity, cell-based; settings: African green monkey (Chlorocebus sabaeus)
[8] = target: T4, Prostaglandin G/H synthase 1 (Ovis aries) (UniProt P05979); assay: Inhibition of sheep COX1 at 10 uM using arachidonic acid as substrate preincubated for 15 mins followed by substrate addition for 2 mins by Cayman based fluorescence assay
T4 sequence (whole entry): T1 sequence (P05979 whole entry)

LNCaP [9] = assay: Inhibition of HDAC in human LNCAP cells assessed as down regulation of androgen receptor expression after 24 hrs by Western blot analysis; format: cell-based
LNCaP [10] = assay: Inhibition of HDAC in human LNCAP cells assessed as down regulation of COX2 expression at 2 uM after 24 hrs by Western blot analysis; format: cell-based
LNCaP [11] = assay: Induction of cell cycle arrest in human LNCAP cells assessed as accumulation at G2 phase at 2.5 uM after 24 hrs by propidium iodide staining based FACS analysis (reference value: 1.08%); format: functional
LNCaP [12] = assay: Inhibition of HDAC in human LNCAP cells assessed as down regulation of COX2 expression at 2 to 10 uM after 24 hrs by Western blot analysis; format: cell-based

Sequence of Histone deacetylase 1 (Q13547 whole entry): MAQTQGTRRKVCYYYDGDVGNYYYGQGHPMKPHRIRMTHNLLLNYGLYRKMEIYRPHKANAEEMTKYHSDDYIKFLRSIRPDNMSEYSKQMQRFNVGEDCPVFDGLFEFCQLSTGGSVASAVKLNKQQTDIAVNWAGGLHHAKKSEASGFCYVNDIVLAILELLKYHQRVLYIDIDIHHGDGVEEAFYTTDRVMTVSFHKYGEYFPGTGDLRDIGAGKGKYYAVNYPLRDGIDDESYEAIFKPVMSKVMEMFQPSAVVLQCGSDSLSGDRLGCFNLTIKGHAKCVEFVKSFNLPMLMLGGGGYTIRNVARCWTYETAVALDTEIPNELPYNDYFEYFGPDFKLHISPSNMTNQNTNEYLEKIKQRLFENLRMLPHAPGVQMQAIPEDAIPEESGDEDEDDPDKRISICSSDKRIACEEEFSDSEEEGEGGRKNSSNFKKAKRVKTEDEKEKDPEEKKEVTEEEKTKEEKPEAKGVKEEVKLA

Compound	Activity (LNCaP [1])	IC50 (Histone deacetylase 1)	IC50 [2]	IC50 [3]	IC50 [4]	IC50 [5]	IC50 [6]	IC50 (Histone deacetylase 8)	IC50 at 72 h [7]	inhibition [8]	inhibition (LNCaP [9])	inhibition (LNCaP [10])	Activity (LNCaP [11])	inhibition (LNCaP [12])
Cc1ccc(-c2cc(C(F)(F)F)nn2-c2ccc(S(=O)(=O)NCCCCCCC(=O)NO)cc2)cc1	31.7%	1.03 µM	3.38 µM	2.19 µM	8 µM	3.57 µM	0.3 µM	0.412 µM	5.53 µM	61.4%	Dose-dependent effect	Active	1.4%	–
COc1ccc2c(c1)c(CC(=O)NCCCCCCC(=O)NO)c(C)n2C(=O)c1ccc(Cl)cc1	–	0.98 µM	–	–	–	21 µM	0.33 µM	0.109 µM	–	22.8%	–	–	–	Active
